Where a SMILES comes first, the peptide text is derived from it. Bridges are numbered along the chain shown (N, C = ends).

Series [1] is described as follows: Degree of fold by FUV-ECD (CCA+ ensemble deconvolution). The series is classed as physicochemical. The following applies: for Degree of the fold by FUV-ECD: T=15 °C, c(protein)=20–30 μM, pH≈7, joint CCA+ deconvolution of 204 T-dependent FUV-ECD spectra; for difference in folded fraction between SS variant and parent: at 4 °C, FUV-ECD ensemble deconvolution. The text has this: Circular dichroism (CD) spectroscopy is increasingly recognized as very sensitive indicator of protein conformation,58, 59 relying on a plethora of electronic transitions. The FUV‐ECD spectra of Trp‐cage proteins (e.g., Exenatide, E19, E19_SS) are typically the weighted sums of the C‐ (folded and highly helical) and U‐type (unfolded) base curves (Figure 2 A), as assigned and verified by means of NMR spectroscopy.60, 61 As the temperature increases, the shape of the FUV‐ECD spectra changes: those of the parent proteins—E2, E5, E11, and E19—acquire more and more U‐type characteristics, as they unfold gradually. The temperature‐dependent FUV‐ECD spectra for all four SS bond enforced model peptides were recorded between 5 and 85 °C (in steps of 5 °C, resulting in 17 spectra for each protein; Figure S1 in the Supporting Information). Aside from E2_SS, the SS‐bond‐containing mutants have similar FUV‐ECD spectra to that of their parent proteins at low temperatures. On the other hand, because the SS bond makes the 3D folds of SS variants more rigid, they preserve their C‐type characteristics better and delay unfolding, even at higher temperatures. Once the SS bond is reduced (see below for details), the spectral properties of the SH variants revert to those of the parent proteins. Their 3D‐scaffold compactness decreases as the temperature increases; this is less apparent in the case of E2 and E2_2SH because they both already present an ensemble of dynamic backbone structures at 5 °C.
Ensemble deconvolution62, 63 of the 204 (12×17) ECD spectra, f(λ, T), made the quantitative analysis of the relative abundance of secondary structural elements belonging to each peptide in each state possible because the pure ECD curves were successfully assigned.60, 64, 65, 66 The results in Figure 2 B indicate that 1) the SS bond stabilizes the less folded protein scaffolds more effectively, for example, whereas the difference at 4 °C between the E2 and E2_SS folded fraction is 48 %, the same difference between E5 and E5_SS is 14 %; in the case of E11 and E11_SS, it is only 28 %, and for E19 and E19_SS it is 7 % (Figure 2 D). 2) The ratio of the folded, helical components increases upon going from E2 to E5 and E11; however, the compact α‐helical content of E19_SS, E19_2SH, and E19 is lower than those of E11_SS, E11_2SH, and E11 because the unfolded eight‐residue‐long N‐terminal part elevates the overall backbone dynamics, which destabilizes the compact 3D fold. 3) All four reduced proteins (E2_2SH, E5_2SH, E11_2SH, E19_2SH) have a higher helix content (≈7–15 %) than that of the parent proteins over the entire temperature range. 4) The 3D folds stabilized by SS bonds are less sensitive to temperature (Figure 2 C, D).
ECD: FUV‐ECD spectra were recorded on a Jasco J810 spectrophotometer by using a 1.0 mm path length cuvette with protein concentrations of 20–30 μM. Data accumulation was performed over a range of 185–260 nm, with 0.2 nm step resolution at a scan rate of 50 nm min^−1 with a 1 nm bandwidth. The spectral accumulations were resolved between 5 and 85 °C in steps of 5 °C. The temperature was controlled by using a Peltier‐type heating system. Each spectrum baseline was processed by subtracting the solvent spectrum from that of the protein and the raw ellipticity data were converted into mean residue molar ellipticity units, [Θ]MR.

Series [2] in a line: SS bond reduction by TCEP monitored by 1H NMR. The following applies: 1.7 mM protein, twofold excess of TCEP, 15 °C, pH 7; for TCEP: Elapsed time to steady state / TCEP: k1 / TCEP: t1/2 of reduction: 1H NMR; for TCEP: Conversion rate: 1H NMR Trp Hε1 integrals; for TCEP: k1: parameter estimation; for TCEP: t1/2 of reduction: calculated from k1 (Eq. 12). The series is classed as physicochemical. The text has this:
The SS bond reduction by TCEP is a bimolecular nucleophilic substitution (SN2) reaction.37 Thus, both the concentration of the oxidized form of the protein [_SS] and that of the RA contribute to the rate of the reduction. In an ideal case, we should consider only nucleophilic attack of the RA (k 1), but, as we explained previously, in practice, we also have to take into account back oxidation (k 2), which takes place simultaneously, and, in some cases, depending on the size and shape of the protein, precipitation (k 3; Figure 5). The mechanism of reduction, therefore, can be described by Equations (2), (3), (4):(2) SS+RAred→k12SH+RAox (3) 2SH+O2→k2SS (4) 2SH→k3SSprecipitated
By fitting this model to the concentration–time functions determined by means of NMR spectroscopy, k 1, k 2, and k 3 can be determined, and half‐lives can be calculated. We focused on the determination of the reduction rate constants k 1; therefore, sampling was more frequent in the reduction phase (stage I; Figure 5 B). Based on parameter estimation (see the Experimental Section), k 2 and k 3 are very often either negligibly small, or, due to a lack of sufficient data, cannot be confidently estimated. Obtaining key kinetic parameters allowed us to describe and compare the reduction kinetics of the SS‐containing miniproteins under various experimental conditions. Some protocols reported in the literature apply extreme conditions, such as high temperature (e.g., 50–80 °C), to obtain short reduction times; this is clearly unsuitable for maintaining the integrity of the protein, or >20‐fold molar excess of reagent. By performing the reduction of E19_SS (0.8 mM) under such conditions (60 °C with 18‐fold TCEP excess), the reaction seemed almost instantaneous (t 1/2<5 min), but the sample became opalescent and side reactions (e.g., precipitation) were instantly detected. Similarly to most globular proteins, the conformational ensemble of E19_2SH at 60 °C is distinctly different from that of 15 °C; thus presenting many more unfolded states. The folded fraction of E19_2SH is 64 % at 15 °C, whereas it is 41 % at 60 °C, according to FUV‐ECD analysis. Instead of intramolecular reoxidation, undesirable intermolecular reoxidation might occur between particles. […] In principle, the reduction rate can be enhanced at lower T by increasing the TCEP molar ratio (15–20‐fold molar excess); however, this also triggers obscure unwanted processes (Figure S5). Experiments were repeated at different temperatures (15, 25, and 37 °C) with 0.8 mM protein and 18‐fold excess of TCEP (Table 2 and Figure S6). The Arrhenius equation allows the activation energy (E a) of the redox reaction to be derived, resulting in a value of about 44.3 kJ mol^−1. For comparison, the activation energy of thiol–disulfide exchange between methylthiolate and oxidized DTT was calculated to be 62 kJ mol^−1.76 Both FUV‐ECD and NMR spectroscopy derived structural information support the high conformational similarity between E19_SS and E19_2SH; therefore, E a is likely to be used for the redox reaction, rather than for the conformational switch between the two conformational states (Table 1). […] Additional experiments were performed to investigate the effect of the protein/RA ratio as a practical perspective (Figure S7). The above‐described NMR spectroscopy methodology provides high‐resolution information about the reduction mechanism, relative to that of the more rapid NUV‐ECD approach, and thus, details of the reduction of all four −SS− protein models were obtained through NMR spectroscopy.
Monitoring reduction kinetics: Peptide samples were prepared between 0.8 and 1.8 mM in 50 mM NaH2PO4–Na2HPO4 buffer (600 μL, pH 6.95), with 10 % D2O. A 0.1 M solution of NaOH was used to set the pH to 7. […]

On to `CC[C@H](C)[C@@H]1NC(=O)[C@H](Cc2ccc(O)cc2)NC(=O)[C@H](CC(C)C)NC(=O)[C@H](CCCNC(=N)N)NC(=O)[C@H](C(C)C)NC(=O)[C@@H](NC(=O)[C@H](CCC(=O)O)NC(=O)[C@H](CCC(=O)O)NC(=O)[C@@H](N)CCC(=O)O)CSSC[C@@H](C(=O)O)NC(=O)[C@@H]2CCCN2C(=O)[C@@H]2CCCN2C(=O)[C@@H]2CCCN2C(=O)[C@H](CCCNC(=N)N)NC(=O)CNC(=O)[C@H](CO)NC(=O)[C@H](CO)NC(=O)[C@@H]2CCCN2C(=O)CNC(=O)CNC(=O)[C@H](CC(=O)O)NC(=O)[C@H](CCCCN)NC(=O)[C@H](CC(C)C)NC(=O)[C@H](Cc2c[nH]c3ccccc23)NC(=O)[C@H](CCC(N)=O)NC1=O` [E5_SS] (H-EEECVRLYIQWLKDGGPSSGRPPPC-OH; disulfide 4-25), for which, in series [1], the “Degree of the fold by FUV-ECD” value is 63.4%; the “difference in folded fraction between SS variant and parent” value is given as 14%. Moreover, in series [2], the “TCEP: Elapsed time to steady state” value is on record as “≈1 h”, the “TCEP: Conversion rate” value is on record as 93%, the “TCEP: k1” value is 0.308 M⁻¹ s⁻¹ and the “TCEP: t1/2 of reduction” value is given as 14 min.

Consider `CC[C@H](C)[C@@H]1NC(=O)[C@H](Cc2ccc(O)cc2)NC(=O)[C@H](CC(C)C)NC(=O)[C@H](CCCNC(=N)N)NC(=O)[C@H](C(C)C)NC(=O)[C@@H](NC(=O)[C@H](CCC(=O)O)NC(=O)[C@H](CCC(=O)O)NC(=O)[C@H](CCC(=O)O)NC(=O)[C@H](CCSC)NC(=O)[C@H](CCC(N)=O)NC(=O)[C@H](CCCCN)NC(=O)[C@H](CO)NC(=O)[C@H](CC(C)C)NC(=O)[C@@H](N)CC(=O)O)CSSC[C@@H](C(=O)O)NC(=O)[C@@H]2CCCN2C(=O)[C@@H]2CCCN2C(=O)[C@@H]2CCCN2C(=O)[C@H](CCCNC(=N)N)NC(=O)CNC(=O)[C@H](CO)NC(=O)[C@H](CO)NC(=O)[C@@H]2CCCN2C(=O)CNC(=O)CNC(=O)[C@H](CC(=O)O)NC(=O)[C@H](CCCCN)NC(=O)[C@H](CC(C)C)NC(=O)[C@H](Cc2c[nH]c3ccccc23)NC(=O)[C@H](CCC(N)=O)NC1=O` [E11_SS] (H-DLSKQMEEECVRLYIQWLKDGGPSSGRPPPC-OH; disulfide 10-31), for which, in series [1], the “Degree of the fold by FUV-ECD” value was found to be 96.0%; the “difference in folded fraction between SS variant and parent” value was 28%. In series [2], the “TCEP: Elapsed time to steady state” value is “≈5–6 h”, the “TCEP: Conversion rate” value was found to be 94%, the “TCEP: k1” value was 0.0613 M⁻¹ s⁻¹ and the “TCEP: t1/2 of reduction” value is recorded as 67 min.

On to `CC[C@H](C)[C@@H]1NC(=O)[C@H](Cc2ccc(O)cc2)NC(=O)[C@H](CC(C)C)NC(=O)[C@H](CCCNC(=N)N)NC(=O)[C@H](C(C)C)NC(=O)[C@@H](N)CSSC[C@@H](C(=O)O)NC(=O)[C@@H]2CCCN2C(=O)[C@@H]2CCCN2C(=O)[C@@H]2CCCN2C(=O)[C@H](CCCNC(=N)N)NC(=O)CNC(=O)[C@H](CO)NC(=O)[C@H](CO)NC(=O)[C@@H]2CCCN2C(=O)CNC(=O)CNC(=O)[C@H](CC(=O)O)NC(=O)[C@H](CCCCN)NC(=O)[C@H](CC(C)C)NC(=O)[C@H](Cc2c[nH]c3ccccc23)NC(=O)[C@H](CCC(N)=O)NC1=O` [E2_SS] (H-CVRLYIQWLKDGGPSSGRPPPC-OH; disulfide 1-22), for which, in series [1], the “Degree of the fold by FUV-ECD” value stood at 51.8%; the “difference in folded fraction between SS variant and parent” value turned out to be 48%. In series [2], the “TCEP: Elapsed time to steady state” value is below 5 min and the “TCEP: Conversion rate” value is reported as 100%.

The record behind these values is PMC7079008, “Compactness of Protein Folds Alters Disulfide‐Bond Reducibility by Three Orders of Magnitude: A Comprehensive Kinetic Case Study on the Reduction of Differently Sized Tryptophan Cage Model Proteins” (Chembiochem, 2019).
